Each structure is given as a SMILES string.

The target of experiment [1] is T1, ALK1 kinase (Homo sapiens (Human), UniProt P37023). Description: ALK1 kinase assay (ProQinase protocol). Format: biochemical. The following applies: ProQinase radiometric assay, casein, γ-33P-ATP. On the procedure: B-1b. ALK1 Kinase Assay (ProQinase Protocol)
ALK1 (Invitrogen, Carlsbad, Calif., USA) kinase activity was measured at ProQinase GmbH (Freiburg, Germany) in a radiometric assay using γ-^33P-ATP and casein (Sigma, St. Louis, Mo., USA) as substrate in 96-well PerkinElmer FlashPlates™ (Boston, Mass., USA). The compounds were tested at 10 concentrations in the range of 1×10^−4 M to 3×10^−9 M in a total volume of 50 μl with a final DMSO concentration of 1% each. The assay components were mixed in the order: • 20 μl assay buffer (70 mM HEPES-NaOH, pH 7.5, 3 mM MgCl2, 3 mM MnCl2, 2 μM sodium orthovanadate, 1.2 mM DTT); • 5 μl γ-^33P-ATP (1.0 μM in water, approx. 6×10^5 cpm per well); • 5 μl test compound solution (in 10% DMSO); • […] (200 μg/ml, 1.0 μg/50 μl final concentration)/enzyme (4 μg/ml, 20 ng/50 μl=5.5 nM final concentration) solution (1:1 mixture).
The reaction mixtures were incubated at 30° C. for 60 minutes and stopped by adding 50 μl 2% (v/v) phosphoric acid. The plates were aspirated and washed twice with 200 μl 0.9% (w/v) sodium chloride. Incorporation of ^33Pi was determined with a microplate scintillation counter (Microbeta, Wallac). All assays were performed using a BecicmanCoulter/SAGIAN™ Core System.
Median values obtained from unspecific substrate binding of labelled. ATP were set as background level, while median values measured in the absence of any inhibitor were considered to reflect full activity of ALK1 kinase. The background activity (ba) was subtracted from the full activity (fa) value as well as from the values obtained from the test compound containing samples (test compound activity, tea). The residual activity in the latter was calculated as follows: residual activity (%)=100×[(tca−ba)/(fa−ba)]
The residual activities for each concentration and the compound IC50 values were calculated using Quattro Workflow V3.1.0 (Quattro Research GmbH, Munich, Germany). The fitting model for the IC50 determinations was “Sigmoidal response (variable slope)” with parameters “top” fixed at 100% and “bottom” at 0%. The fitting method used was a least-squares fit.

The subject of experiment [2] is hSmad7 mRNA in BMP9-stimulated HUVEC. In words: Smad7 target gene induction: HUVEC cell assay and TaqMan expression analysis. Format: cell-based, human. The following applies: Homo sapiens, 3 h, 1 ng/ml BMP9 for 3 h, Smad7 mRNA by TaqMan. On the procedure: B-2b. Smad7 Target Gene Induction: HUVEC Cell Assay and TaqMan Expression Analysis
The in vitro potency of ALK1 inhibitors was tested in a cell-based assay. Bone morphogenetic protein 9 (BMP9) induces Smad7 mRNA expression in human vascular endothelial cells (HUVEC) via activation of ALK1.
1.5×10^4 passage 2 HUVECs (Lonza, Basel, Switzerland) per well were seeded in a 96-well plate in EBM-2 medium containing EGM-2 additives and growth factors (Lonza, CC-3156 and CC-4176). After 4 h, the medium was changed to EBM-2 with 0.2% fetal calf serum (FCS) and the cells were starved for 20 h in a humidified incubator at 37° C., 5% CO2. Test compounds were added at 11 different concentrations between 0 and 10 000 nM one hour prior to stimulation of the cells for 3 h with recombinant human BMP9 protein at 1 ng/ml (dissolved in 4 mM hydrochloric acid, 0.1% BSA at 10 μg/ml; R&D Systems, Minneapolis, Minn., USA, 3209BP). Medium was removed, and the cells were lysed in 100 μl RLT buffer (Qiagen, Hilden, Germany). RNA was isolated using the Qiagen RNeasy 96 Kit (order-No. 74182) according to manufacturer's instructions and eluted from the columns with 65 μl RNAse-free water. Reverse transcription for quantitative RT-PCR was carried out with the Omniscript Kit (Qiagen, 205113) in RNAse-free 96-well round-bottom plates. Per well, 6.8 μl of a reaction master mix containing 2 μl 10×RT-buffer, 2 μl dNTPs (5 mM each), 1.6 μl random primer N6 (125 μM), 0.25 μl Rnase Out (40 U/μl) and 1 μl Omniscript Reverse Transcriptase were added. After addition of 13.2 μl of the RNA/water mixture, plate contents were mixed, incubated for 1 h at 37° C. and the total volume adjusted to 100 μl in each well by addition of 80 μl RNAse-free water.
The quantification of human Smad7 mRNA was carried out on a TaqMan using the Eurogentec qPCR Mastermix Plus (RT-QP2X-03-075+; Cologne, Germany) and employing human L32 as housekeeping reference mRNA. Per qPCR reaction, 2.8 μl primer mix, 10 μl master mix, 2.2 μl water and 5 μl cDNA were added. Thermal cycling parameters were 2 min at 50° C., followed by 10 min at 95° C., followed by 40 cycles of melting at 95° C. for 15 sec and annealing/extending at 60° C. for 1 min.
Smad7 mRNA levels induced by 1 ng/ml BMP9 without the addition of any inhibitor were set at 100% induction, and % inhibition was calculated for each test compound with this value. For each test compound, every value was determined in quadruplicate. The IC50 values were determined using Microsoft Excel. The fitting method used was a weighted, unconstrained ML-fit.
On the technique in general: Real-time PCR tracks product formation cycle by cycle.

Experiment [3] addresses T1, ALK1 kinase. In words: In vitro enzyme inhibition using scintillation of incorporated radio label (flashplate assay). The following applies: biotinylated α-casein, 33P-ATP, 500 nM ATP. The format is biochemical. On the procedure:
B-1a. In Vitro Enzyme Inhibition Using Scintillation of Incorporated Radio Label (Flashplate Assay)
Test compounds diluted in DMSO are mixed with a suitable substrate/co-substrate (here: biotinylated α-casein and ^33P-ATP) in a corresponding assay buffer. Addition of the enzyme of interest (here: ALK1 kinase) starts the enzyme reaction. The enzyme-catalyzed incorporation of radio label into the substrate is measured via scintillation. Incorporated radio label is separated from free radio label via specific binding of the biotinylated substrate to strepavidin-coated microtiter plates (flashplates) and concomitant washing steps. The scintillation signal intensity (counts per minutes, cpm) is proportional to the enzyme activity. Enzyme inhibition results in a decreased signal intensity. IC50 values of the test compounds are determined by cpm-versus-[I] plots.
Reaction buffer contains 50 mM Tris pH 8.0 (Sigma), 1 mM MnCl2 (Sigma), 0.01% Nonidet P40 (Fluka), 0.5× Complete EDTA-free protease inhibitors (Roche; contains a mixture of several protease inhibitors for the inhibition of serine and cysteine (but not metallo-) proteases; 1 tablet contains protease inhibitors sufficient for a 50 ml cell extract; the concentration used in this assay corresponds to 1 tablet in 100 ml).
• 1.) Stop solution: Dulbecco's PBS (PAA, Pasching, Austria), 25 mM EDTA (Sigma), 25 μM ATP (Roche), 0.05% Triton X-100 (Sigma); • 2.) Saturation buffer: Dulbecco's PBS (PAA, Pasching, Austria), 100 μM ATP (Roche), 0.2% Triton X-100 (Sigma); • 3.) Wash buffer: Dulbecco's PBS (PAA, Pasching, Austria). Enzyme Solution:
ALK1 (Invitrogen, Paisley, United Kingdom) stock solution (35.7 ng/μl) is diluted to 4 ng/μl; final concentration in the reaction is 1 ng/μl.
Dephosphorylated α-casein (Sigma) is biotinylated according to the manufacturer's protocol (Pierce, Bonn, Germany) resulting in a stock solution of 61.6 μM. Briefly, EZ-Link® Biotin reagent (sulfosuccinimidyl-6-(biotinamido)hexanoate; Pierce, Bonn, Germany) is added in equal molarity to α-casein and incubated on ice for 2 h. Afterwards, the biotin reagent is removed by dialysis (2×2 h and overnight).
A 100 mM solution of cold (unlabelled) ATP (Roche) is diluted 1:100 before each test. For the substrate mix, α-casein is diluted to 2.22 μM resulting in a final concentration of 1 μM α-casein in the reaction. Additionally, cold ATP is added to give a 1.11 μM solution which results in a final concentration of 500 nM in the reaction.
Radioactive ATP Solution:
The stock solution (9.25 MBq/25 μl of ^33P-ATP; Perkin Elmer, Rodgau, Germany) is diluted to 651.2 Bq/μl.
Compounds are dissolved in 100% DMSO (10 mM stock solution) and diluted to 2 mM. Further dilutions are made stepwise 1:3.16 in DMSO.
A volume of 9 μl substrate solution is provided into each well of a 384 well microliter plate (Greiner Bio-One, Solingen, Germany), 1 μl compound solution and 5 μl of the radioactive ATP solution are added. Enzyme reaction starts with addition of 5 μl of enzyme solution. The mixture is incubated for 60 minutes at room temperature and then stopped by addition of 10 μl stop solution. The 384 well microliter flashplates (Perkin Elmer, Rodgau, Germany) are saturated with 50 μl saturation buffer per well for at least 60 minutes. Subsequently, a volume of 20 μl is discarded and replaced with 20 μl of the stopped ALK1 reaction mixture. Binding of biotinylated substrate to the flashplate is allowed for by overnight incubation at room temperature. Bound substrate is separated from unbound components through repeated washing steps (3×50 μl washing buffer per well). Finally, 50 μl washing buffer is added, and the scintillation signal (cpm) is measured in a suitable counter (Perkin Elmer, Rodgau, Germany).

T1 sequence (P37023 22-503): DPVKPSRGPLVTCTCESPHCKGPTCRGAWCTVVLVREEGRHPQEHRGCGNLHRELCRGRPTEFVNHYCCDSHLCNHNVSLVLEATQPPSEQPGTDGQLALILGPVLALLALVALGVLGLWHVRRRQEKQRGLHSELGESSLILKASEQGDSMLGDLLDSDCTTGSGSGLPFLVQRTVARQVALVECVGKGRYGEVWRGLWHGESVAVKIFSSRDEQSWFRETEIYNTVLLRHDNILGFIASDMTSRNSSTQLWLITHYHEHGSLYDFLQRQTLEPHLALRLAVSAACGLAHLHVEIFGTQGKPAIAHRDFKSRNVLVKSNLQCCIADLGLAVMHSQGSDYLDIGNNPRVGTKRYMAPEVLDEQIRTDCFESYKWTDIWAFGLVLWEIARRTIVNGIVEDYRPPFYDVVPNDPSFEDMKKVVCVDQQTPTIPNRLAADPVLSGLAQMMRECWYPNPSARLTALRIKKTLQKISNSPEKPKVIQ

Usually IC50 stands for the midpoint of a concentration-inhibition curve. Low readings indicate higher potency, high ones lower potency. As for `CCc1cc(-c2cc(C(O)C3CC3)n3ncnc(N)c23)cc(F)c1CO` (racemic) [Example 39, rac-{4-Amino-5-[3-ethyl-5-fluoro-4-(hydroxymethyl)phenyl]pyrrolo[2,1-f][1,2,4]triazin-7-yl}-(cyclopropyl)methanol], the IC50 was 5.7 nM in experiment [1] and 500 nM in experiment [2].

Regarding `CCc1cc(-c2cc([C@H]3CC[C@H](O)CC3)n3ncnc(N)c23)cc(F)c1CO` [Example 28, trans-4-{4-Amino-5-[3-ethyl-5-fluoro-4-(hydroxymethyl)phenyl]pyrrolo[2,1-f][1,2,4]triazin-7-yl}-cyclohexanol], the IC50 came out at 170 nM in experiment [3] and 124 nM in experiment [1].

For the compound `CCc1cc(-c2cc(C3CCNC3)n3ncnc(N)c23)cc(F)c1CO` (racemic) [Example 37, rac-{4-[4-Amino-7-(pyrrolidin-3-yl)pyrrolo[2,1-f][1,2,4]triazin-5-yl]-2-ethyl-6-fluorophenyl}-methanol], the IC50 in experiment [1] was less than 3 nM; in experiment [2] it was 330 nM.

In experiment [1], `CCc1cc(-c2cc(C3CCCNC3)n3ncnc(N)c23)cc(F)c1CO` (racemic) [Example 38, rac-{4-[4-Amino-7-(piperidin-3-yl)pyrrolo[2,1-f][1,2,4]triazin-5-yl]-2-ethyl-6-fluorophenyl}-methanol] came in with an IC50 of 4 nM.

(Values after US9040691B2, “Hydroxymethylaryl-substituted pyrrolotriazines as ALK1 inhibitors” (BAYER INTELLECTUAL PROPERTY GMBH, priority 2011, dated 2015).)
